Reference: patent publication EP0326331B1, “Substituted quinolines and cinnolines” (Dow AgroSciences LLC, priority 1988, dated 1989)

Columns and labels:
Type in all cases: in vivo
[1] = test system: Erysiphe graminis tritici (powdery mildew); assay: Test 1 greenhouse foliar spray screen, powdery mildew on wheat; conditions: disease control rating, foliar spray on wheat, 400 ppm (+++ at 100 ppm)
[2] = test system: Pyricularia oryzae (rice blast); assay: whole plant or invertebrate; conditions: disease control rating, foliar spray on rice, 400 ppm (+++ at 100 ppm)
[3] = test system: Puccinia recondita tritici (leaf rust); assay: Test 1 greenhouse foliar spray screen, leaf rust on wheat; conditions: disease control rating, foliar spray on wheat, 400 ppm (+++ at 100 ppm)
[4] = test system: Botrytis cinerea (gray mold); assay: Test 1 greenhouse foliar spray screen, gray mold on grape berries; conditions: disease control rating, spray on grape berries, 400 ppm (+++ at 100 ppm)
[5] = test system: Pseudoperonospora cubensis (downy mildew); assay: Test 1 greenhouse foliar spray screen, downy mildew on squash; conditions: disease control rating, foliar spray on squash, 400 ppm (+++ at 100 ppm)
[6] = test system: Cercospora beticola (leaf spot); assay: Test 1 greenhouse foliar spray screen, leaf spot on sugar beet; conditions: disease control rating, foliar spray on sugar beet, 400 ppm (+++ at 100 ppm)
[7] = test system: Venturia inaequalis (apple scab); assay: Test 1 greenhouse foliar spray screen, apple scab on apple seedling; conditions: disease control rating, foliar spray on apple seedling, 400 ppm (+++ at 100 ppm)
[8] = test system: Septoria tritici (leaf blotch); assay: Test 1 greenhouse foliar spray screen, leaf blotch on wheat; conditions: disease control rating, foliar spray on wheat, 400 ppm (+++ at 100 ppm)
[9] = test system: southern armyworm (Spodopetra eridania Cramer); assay: Mite/insect screen, SAW; conditions: Spodoptera eridania, percent mortality, SAW, read-out: SAW RESULTS %; for mortality at 200 ppm: SM & MA RATE 200 PPM; for mortality at 400 ppm: SM & MA RATE 400 PPM
Outline: (§1)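 Compounds dissolved in 50:50 acetone/alcohol containing sulfonate/nonionic emulsifier blends, then diluted with water to the indicated concentrations. Leaves sprayed on both surfaces to runoff at 10 psi and dried one hour. Percent mortality scored after standard exposure periods.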

[10] = test system: Twospotted spider mites (Tetranychus urticae Koch); assay: Mite/insect screen, SM; conditions: Tetranychus urticae, percent mortality, SAW, read-out: SM RESULTS %; for mortality at 200 ppm: SM & MA RATE 200 PPM; for mortality at 400 ppm: SM & MA RATE 400 PPM
Outline: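 Activity is expressed as percent mortality at the indicated spray concentrations. Plants are sprayed to runoff on upper and lower leaf surfaces with aqueous dilutions of an acetone/alcohol emulsifiable formulation, then dried for one hour.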

[11] = test system: melon aphids (Aphis gossypii Glover); assay: Mite/insect screen, MA; conditions: Aphis gossypii, percent mortality, SAW, read-out: MA RESULTS %; for mortality at 200 ppm: SM & MA RATE 200 PPM; for mortality at 400 ppm: SM & MA RATE 400 PPM
Outline: as §1

corn rootworm = assay: Mite/insect screen, CRW; conditions: percent mortality, read-out: CRW RESULTS %; for mortality at 12 ppm: CRW RATE 12.00 PPM; for mortality at 24 ppm: CRW RATE 24.00 PPM
Outline: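 Compounds were dissolved in 50:50 acetone/alcohol containing sulfonate/nonionic emulsifier blends (23 g/L plus 13 g/L), then diluted with water to the test concentrations. Percent mortality was scored after standard exposure periods.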

| SMILES | POWD MDEW [1] | RICE BLAST [2] | LEAF RUST [3] | GRAY MOLD [4] | DOWN MDEW [5] | LEAF SPOT [6] | APPL SCAB [7] | LEAF BLOT [8] | mortality at 200 ppm [9] [%] | mortality at 200 ppm [10] [%] | mortality at 200 ppm [11] [%] | mortality at 12 ppm (corn rootworm) [%] | mortality at 400 ppm [9] [%] | mortality at 400 ppm [10] [%] | mortality at 400 ppm [11] [%] | mortality at 24 ppm (corn rootworm) [%] |
| --- | --- | --- | --- | --- | --- | --- | --- | --- | --- | --- | --- | --- | --- | --- | --- | --- |
| COc1cc(CCNc2ccnc3c(F)cccc23)cc(OC)c1 [Example 119, N-[2-(3,5-dimethoxyphenyl)ethyl]-8-fluoro-4-quinolinamine] | + (20-89% control at 400 ppm) | + (20-89% control at 400 ppm) | + (20-89% control at 400 ppm) | - (0-19% control at 400 ppm) | ++ (90-100% control at 400 ppm) | - (0-19% control at 400 ppm) | + (20-89% control at 400 ppm) | + (20-89% control at 400 ppm) | 0 | 0 | 0 | 0 | – | – | – | – |
| c1ccc(C2CC2Nc2ccnc3ccccc23)cc1 (stereo not drawn) [Example 120, N-(2-phenylcyclopropyl)-4-quinolinamine] | - (0-19% control at 400 ppm) | + (20-89% control at 400 ppm) | + (20-89% control at 400 ppm) | - (0-19% control at 400 ppm) | ++ (90-100% control at 400 ppm) | +++ (90-100% control at 100 ppm) | - (0-19% control at 400 ppm) | - (0-19% control at 400 ppm) | 0 | 0 | 0 | 0 | – | – | – | – |
| CC(=O)N(CCc1ccc(C)cc1)c1ccnc2ccc(C)cc12 [Example 122, N-[2-(4-methylphenyl)ethyl]-N-(6-methyl-4-quinolinyl)acetamide] | - (0-19% control at 400 ppm) | ++ (90-100% control at 400 ppm) | + (20-89% control at 400 ppm) | - (0-19% control at 400 ppm) | ++ (90-100% control at 400 ppm) | - (0-19% control at 400 ppm) | - (0-19% control at 400 ppm) | - (0-19% control at 400 ppm) | 0 | 0 | 0 | 0 | 0 | 0 | 0 | 0 |
| Fc1cccc2c(NC3CC3c3ccccc3)ccnc12 (stereo not drawn) [Example 123, 8-fluoro-N-(2-phenylcyclopropyl)-4-quinolinamine] | - (0-19% control at 400 ppm) | + (20-89% control at 400 ppm) | + (20-89% control at 400 ppm) | - (0-19% control at 400 ppm) | +++ (90-100% control at 100 ppm) | - (0-19% control at 400 ppm) | - (0-19% control at 400 ppm) | - (0-19% control at 400 ppm) | 0 | 0 | 0 | 0 | – | – | – | – |
| CC(=O)N(CCc1ccc(Cl)cc1)c1ccnc2cc(Cl)ccc12 [Example 124, N-[2-(4-chlorophenyl)ethyl]-N-(7-chloro-4-quinolinyl)acetamide] | +++ (90-100% control at 100 ppm) | + (20-89% control at 400 ppm) | + (20-89% control at 400 ppm) | - (0-19% control at 400 ppm) | - (0-19% control at 400 ppm) | - (0-19% control at 400 ppm) | - (0-19% control at 400 ppm) | - (0-19% control at 400 ppm) | 0 | 0 | 0 | 0 | 0 | 0 | 0 | 0 |
| CC(=O)N(CCc1cccc(C(F)(F)F)c1)c1ccnc2cc(Cl)ccc12 [Example 126, N-(7-chloro-4-quinolinyl)-N-[2-[3-(trifluoromethyl)phenyl]ethyl]acetamide] | ++ (90-100% control at 400 ppm) | +++ (90-100% control at 100 ppm) | + (20-89% control at 400 ppm) | - (0-19% control at 400 ppm) | + (20-89% control at 400 ppm) | - (0-19% control at 400 ppm) | - (0-19% control at 400 ppm) | + (20-89% control at 400 ppm) | 0 | 0 | 0 | 0 | 0 | 0 | 0 | 0 |
| CC(=O)N(CCc1ccc(C(C)C)cc1)c1ccnc2c(F)cccc12 [Example 129, N-[2-[4-(i-propyl)phenyl]ethyl]-N-(8-fluoro-4-quinolinyl)acetamide] | - (0-19% control at 400 ppm) | + (20-89% control at 400 ppm) | ++ (90-100% control at 400 ppm) | - (0-19% control at 400 ppm) | + (20-89% control at 400 ppm) | - (0-19% control at 400 ppm) | + (20-89% control at 400 ppm) | - (0-19% control at 400 ppm) | 0 | 0 | 0 | 0 | 0 | 0 | 0 | 0 |
| Fc1cccc2c(NCCCc3ccc(Cl)cc3)ccnc12 [Example 135, N-[3-(4-chlorophenyl)propyl]-8-fluoro-4-quinolinamine] | - (0-19% control at 400 ppm) | - (0-19% control at 400 ppm) | - (0-19% control at 400 ppm) | - (0-19% control at 400 ppm) | +++ (90-100% control at 100 ppm) | - (0-19% control at 400 ppm) | - (0-19% control at 400 ppm) | + (20-89% control at 400 ppm) | 0 | 0 | 0 | 0 | 0 | 0 | 0 | 0 |
| Clc1ccc(CCCNc2ccnc3cc(Cl)ccc23)cc1 [Example 136, N-[3-(4-chlorophenyl)propyl]-7-chloro-4-quinolinamine] | + (20-89% control at 400 ppm) | - (0-19% control at 400 ppm) | - (0-19% control at 400 ppm) | - (0-19% control at 400 ppm) | +++ (90-100% control at 100 ppm) | - (0-19% control at 400 ppm) | - (0-19% control at 400 ppm) | - (0-19% control at 400 ppm) | 0 | 0 | 0 | 0 | 0 | 0 | 0 | 0 |
| c1ccc(CCCNc2ccnc3ccccc23)cc1 [Example 139, N-(3-phenylpropyl)-4-quinolinamine] | + (20-89% control at 400 ppm) | + (20-89% control at 400 ppm) | + (20-89% control at 400 ppm) | - (0-19% control at 400 ppm) | ++ (90-100% control at 400 ppm) | - (0-19% control at 400 ppm) | - (0-19% control at 400 ppm) | - (0-19% control at 400 ppm) | 0 | 0 | 0 | 0 | – | – | – | – |
